In ChEMBL document CHEMBL1201862, “PubChem BioAssay data set” (2004):
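Each compound was tested at five concentrations against cells in 96-well plates for 48 hours. Abbreviation: GI50, concentration required for 50% inhibition of growth.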 Calls of active or inactive are those of the source. Rule as the data show it: active = GI50 up to about 1.1 µM and inactive = higher.

What was measured:
Assay in all cases: DTP human tumour cell line panel, 48 h
786-0 = system: 786-0
A498 = system: A498
A549 = system: A549
ACHN = system: ACHN
BT-549 = system: BT-549
CAKI-1 = system: CAKI-1
CCRF-CEM = system: CCRF-CEM
COLO 205 = system: COLO 205
DU-145 = system: DU-145
EKVX = system: EKVX
HCT-116 = system: HCT-116
HCT-15 = system: HCT-15
HL-60 = system: HL-60
HOP-62 = system: HOP-62
HOP-92 = system: HOP-92
HT-29 = system: HT-29
Hs-578T = system: Hs-578T
IGROV-1 = system: IGROV-1
K562 = system: K562
KM12 = system: KM12
LOX IMVI = system: LOX IMVI
M14 = system: M14
MCF7 = system: MCF7
MDA-MB-231 = system: MDA-MB-231
MDA-MB-435 = system: MDA-MB-435
MDA-N = system: MDA-N
MOLT-4 = system: MOLT-4
Malme-3M = system: Malme-3M
NCI-H226 = system: NCI-H226
NCI-H460 = system: NCI-H460
NCI-H522 = system: NCI-H522
NCI/ADR-RES = system: NCI/ADR-RES
OVCAR-3 = system: OVCAR-3
OVCAR-4 = system: OVCAR-4
OVCAR-5 = system: OVCAR-5
OVCAR-8 = system: OVCAR-8
PC-3 = system: PC-3
RPMI-8226 = system: RPMI-8226
RXF 393 = system: RXF 393
SF-268 = system: SF-268
SF-295 = system: SF-295
SF-539 = system: SF-539
SK-MEL-28 = system: SK-MEL-28
SK-MEL-2 = system: SK-MEL-2
SK-MEL-5 = system: SK-MEL-5
SK-OV-3 = system: SK-OV-3
SN12C = system: SN12C
SNB-19 = system: SNB-19
SNB-75 = system: SNB-75
SR = system: SR
SW-620 = system: SW-620
T47D = system: T47D
TK-10 = system: TK-10
U-251 = system: U-251
UACC-257 = system: UACC-257
UO-31 = system: UO-31
HCC 2998 = system: HCC 2998
NCI-H23 = system: NCI-H23
UACC-62 = system: UACC-62

SMILES: O=C1NC(=O)C(c2c[nH]c3ccccc23)=C1c1cnc[nH]1
- GI50 (786-0): > 100 µM (inactive)
- GI50 (A498): > 100 µM (inactive)
- GI50 (A549): > 100 µM (inactive)
- GI50 (ACHN): > 100 µM (inactive)
- GI50 (BT-549): 46.3 µM (inactive)
- GI50 (CAKI-1): > 100 µM (inactive)
- GI50 (CCRF-CEM): 47.3 µM (inactive)
- GI50 (COLO 205): 49.5 µM (inactive)
- GI50 (DU-145): > 100 µM (inactive)
- GI50 (EKVX): > 100 µM (inactive)
- GI50 (HCT-116): 41.8 µM (inactive)
- GI50 (HCT-15): > 100 µM
- GI50 (HL-60): 26.9 µM (inactive)
- GI50 (HOP-62): > 100 µM (inactive)
- GI50 (HOP-92): > 100 µM (inactive)
- GI50 (HT-29): 66.4 µM (inactive)
- GI50 (Hs-578T): 64.3 µM (inactive)
- GI50 (IGROV-1): > 100 µM (inactive)
- GI50 (K562): 5.61 µM (inactive)
- GI50 (KM12): 45.2 µM (inactive)
- GI50 (LOX IMVI): 59 µM (inactive)
- GI50 (M14): > 100 µM (inactive)
- GI50 (MCF7): 34.5 µM (inactive)
- GI50 (MDA-MB-231): > 100 µM (inactive)
- GI50 (MDA-MB-435): 75.3 µM (inactive)
- GI50 (MDA-N): 74.3 µM (inactive)
- GI50 (MOLT-4): 8.47 µM (inactive)
- GI50 (Malme-3M): > 100 µM (inactive)
- GI50 (NCI-H226): 1.79 µM (inactive)
- GI50 (NCI-H460): 55.3 µM (inactive)
- GI50 (NCI-H522): 56.8 µM (inactive)
- GI50 (NCI/ADR-RES): > 100 µM (inactive)
- GI50 (OVCAR-3): 82 µM (inactive)
- GI50 (OVCAR-4): > 100 µM (inactive)
- GI50 (OVCAR-5): > 100 µM (inactive)
- GI50 (OVCAR-8): > 100 µM (inactive)
- GI50 (PC-3): > 100 µM (inactive)
- GI50 (RPMI-8226): 49 µM (inactive)
- GI50 (RXF 393): > 100 µM (inactive)
- GI50 (SF-268): > 100 µM (inactive)
- GI50 (SF-295): > 100 µM (inactive)
- GI50 (SF-539): 32.9 µM (inactive)
- GI50 (SK-MEL-28): > 100 µM (inactive)
- GI50 (SK-MEL-2): 43.4 µM (inactive)
- GI50 (SK-MEL-5): 22.5 µM (inactive)
- GI50 (SK-OV-3): > 100 µM (inactive)
- GI50 (SN12C): > 100 µM (inactive)
- GI50 (SNB-19): > 100 µM (inactive)
- GI50 (SNB-75): > 100 µM (inactive)
- GI50 (SR): 23.6 µM (inactive)
- GI50 (SW-620): 57.3 µM (inactive)
- GI50 (T47D): > 100 µM (inactive)
- GI50 (TK-10): 89.5 µM (inactive)
- GI50 (U-251): > 100 µM (inactive)
- GI50 (UACC-257): > 100 µM (inactive)
- GI50 (UO-31): 70.6 µM (inactive)

SMILES: C=CCN1C(N)=C(C#N)C(C#N)(C#N)C1CCC (stereo unspecified)
- GI50 (786-0): > 100 µM (inactive)
- GI50 (A498): > 100 µM (inactive)
- GI50 (A549): > 100 µM (inactive)
- GI50 (ACHN): > 100 µM (inactive)
- GI50 (BT-549): > 100 µM (inactive)
- GI50 (CAKI-1): > 100 µM (inactive)
- GI50 (CCRF-CEM): > 100 µM (inactive)
- GI50 (COLO 205): > 100 µM (inactive)
- GI50 (DU-145): > 100 µM (inactive)
- GI50 (EKVX): 47.4 µM (inactive)
- GI50 (HCC 2998): > 100 µM (inactive)
- GI50 (HCT-116): > 100 µM (inactive)
- GI50 (HCT-15): > 100 µM
- GI50 (HL-60): > 100 µM (inactive)
- GI50 (HOP-62): > 100 µM (inactive)
- GI50 (HOP-92): 52.1 µM (inactive)
- GI50 (HT-29): > 100 µM (inactive)
- GI50 (Hs-578T): > 100 µM (inactive)
- GI50 (IGROV-1): > 100 µM (inactive)
- GI50 (K562): > 100 µM (inactive)
- GI50 (KM12): > 100 µM (inactive)
- GI50 (LOX IMVI): > 100 µM (inactive)
- GI50 (M14): > 100 µM (inactive)
- GI50 (MCF7): > 100 µM (inactive)
- GI50 (MDA-MB-231): > 100 µM (inactive)
- GI50 (MDA-MB-435): > 100 µM (inactive)
- GI50 (MDA-N): > 100 µM (inactive)
- GI50 (MOLT-4): > 100 µM (inactive)
- GI50 (Malme-3M): > 100 µM (inactive)
- GI50 (NCI-H226): > 100 µM (inactive)
- GI50 (NCI-H23): > 100 µM (inactive)
- GI50 (NCI-H460): > 100 µM (inactive)
- GI50 (NCI-H522): > 100 µM (inactive)
- GI50 (NCI/ADR-RES): > 100 µM (inactive)
- GI50 (OVCAR-3): > 100 µM (inactive)
- GI50 (OVCAR-4): > 100 µM (inactive)
- GI50 (OVCAR-5): > 100 µM (inactive)
- GI50 (OVCAR-8): > 100 µM (inactive)
- GI50 (PC-3): > 100 µM (inactive)
- GI50 (RPMI-8226): > 100 µM (inactive)
- GI50 (RXF 393): > 100 µM (inactive)
- GI50 (SF-268): > 100 µM (inactive)
- GI50 (SF-295): > 100 µM (inactive)
- GI50 (SF-539): > 100 µM (inactive)
- GI50 (SK-MEL-2): > 100 µM (inactive)
- GI50 (SK-MEL-5): 81.7 µM (inactive)
- GI50 (SK-OV-3): > 100 µM (inactive)
- GI50 (SN12C): > 100 µM (inactive)
- GI50 (SNB-19): > 100 µM (inactive)
- GI50 (SNB-75): > 100 µM (inactive)
- GI50 (SR): > 100 µM (inactive)
- GI50 (SW-620): > 100 µM (inactive)
- GI50 (T47D): 54.8 µM (inactive)
- GI50 (TK-10): > 100 µM (inactive)
- GI50 (U-251): > 100 µM (inactive)
- GI50 (UACC-257): > 100 µM (inactive)
- GI50 (UACC-62): > 100 µM (inactive)
- GI50 (UO-31): 75.2 µM (inactive)

SMILES: FC(F)(F)c1ccc2c(c1)nc(Cc1ccc(Cl)c(Cl)c1)n2CC1CCCN2CCCCC12 (stereo unspecified)
- GI50 (786-0): 16.2 µM (inactive)
- GI50 (A498): 25.4 µM (inactive)
- GI50 (A549): 18.1 µM (inactive)
- GI50 (ACHN): 22.8 µM (inactive)
- GI50 (BT-549): 28.6 µM (inactive)
- GI50 (CAKI-1): 29.7 µM (inactive)
- GI50 (COLO 205): 16.1 µM (inactive)
- GI50 (DU-145): 50.6 µM (inactive)
- GI50 (EKVX): 21.2 µM (inactive)
- GI50 (HCC 2998): 8.95 µM (inactive)
- GI50 (HCT-116): 14.8 µM (inactive)
- GI50 (HCT-15): 30.8 µM
- GI50 (HL-60): 17.5 µM (inactive)
- GI50 (HOP-62): 31 µM (inactive)
- GI50 (HOP-92): 22.9 µM (inactive)
- GI50 (HT-29): 11.2 µM (inactive)
- GI50 (Hs-578T): 10.9 µM (inactive)
- GI50 (IGROV-1): 21.2 µM (inactive)
- GI50 (K562): 32.5 µM (inactive)
- GI50 (KM12): 24.4 µM (inactive)
- GI50 (LOX IMVI): 16.3 µM (inactive)
- GI50 (M14): 12.4 µM (inactive)
- GI50 (MCF7): 17.5 µM (inactive)
- GI50 (MDA-MB-231): 15.3 µM (inactive)
- GI50 (MDA-MB-435): 30.4 µM (inactive)
- GI50 (MDA-N): 18.2 µM (inactive)
- GI50 (MOLT-4): 37.4 µM (inactive)
- GI50 (Malme-3M): 13.6 µM (inactive)
- GI50 (NCI-H226): 26.5 µM (inactive)
- GI50 (NCI-H460): 19.6 µM (inactive)
- GI50 (NCI-H522): 14.2 µM (inactive)
- GI50 (NCI/ADR-RES): 25.8 µM (inactive)
- GI50 (OVCAR-3): 20 µM (inactive)
- GI50 (OVCAR-4): 74.5 µM (inactive)
- GI50 (OVCAR-5): 17.4 µM (inactive)
- GI50 (OVCAR-8): 35.8 µM (inactive)
- GI50 (PC-3): 30.5 µM (inactive)
- GI50 (RPMI-8226): 57 µM (inactive)
- GI50 (RXF 393): 23.6 µM (inactive)
- GI50 (SF-268): 27.8 µM (inactive)
- GI50 (SF-295): 22.9 µM (inactive)
- GI50 (SF-539): 18.9 µM (inactive)
- GI50 (SK-MEL-28): 21.1 µM (inactive)
- GI50 (SK-MEL-2): 35.5 µM (inactive)
- GI50 (SK-MEL-5): 16.4 µM (inactive)
- GI50 (SK-OV-3): 31.3 µM (inactive)
- GI50 (SN12C): 20.3 µM (inactive)
- GI50 (SNB-19): 18.9 µM (inactive)
- GI50 (SNB-75): 28.6 µM (inactive)
- GI50 (SR): 23.2 µM (inactive)
- GI50 (SW-620): 34.8 µM (inactive)
- GI50 (T47D): 29 µM (inactive)
- GI50 (TK-10): 19.1 µM (inactive)
- GI50 (U-251): 23.1 µM (inactive)
- GI50 (UACC-257): 18.5 µM (inactive)
- GI50 (UACC-62): 15.9 µM (inactive)
- GI50 (UO-31): 0.169 µM (active)
